Laboratory results: the NIST ThermoML archive (doi:10.1021/je100967k)

Assays:
[1] = refractive index (Na D-line) (dimensionless); xn = mol fraction of the nth substance listed; conditions: 101 kPa, Liquid, Standard Abbe refractometry
[2] = xn = mol fraction of the nth substance listed; conditions: 101 kPa, Liquid; for speed of sound: Pulse-echo method

CN1CCCC1=O [N-methylpyrrolidone] + O
Conditions | mass density, 293.15 K [kg/m3] | refractive index, 293.15 K | refractive index, 303.15 K | refractive index, 313.15 K | refractive index, 323.15 K | speed of sound, 293.15 K [m/s] | speed of sound, 303.15 K [m/s] | viscosity, 293.15 K [mPa·s]
[1], x1 = 0.1 | – | 1.3907 | 1.3882 | 1.3863 | 1.384 | – | – | –
[1], x1 = 0.2 | – | 1.4221 | 1.4187 | 1.4165 | 1.4114 | – | – | –
[1], x1 = 0.3001 | – | 1.4402 | 1.4363 | 1.4331 | 1.4283 | – | – | –
[1], x1 = 0.3994 | – | 1.4507 | 1.4467 | 1.4425 | 1.4387 | – | – | –
[1], x1 = 0.4997 | – | 1.4573 | 1.4533 | 1.4492 | 1.445 | – | – | –
[1], x1 = 0.6001 | – | 1.4618 | 1.4576 | 1.4534 | 1.4495 | – | – | –
[1], x1 = 0.6997 | – | 1.4648 | 1.4608 | 1.4565 | 1.4524 | – | – | –
[1], x1 = 0.7982 | – | 1.4673 | 1.4628 | 1.4584 | 1.4546 | – | – | –
[1], x1 = 0.899 | – | 1.469 | 1.4649 | 1.4604 | 1.4564 | – | – | –
[1], x1 = 1 | – | 1.4706 | 1.4664 | 1.4621 | 1.4576 | – | – | –
[2], x1 = 0.1 | 1030.11 | – | – | – | – | 1713.9 | 1694.6 | 3.332
[2], x1 = 0.2 | 1047.15 | – | – | – | – | 1766.5 | 1732 | 5.903
[2], x1 = 0.3001 | 1052.4 | – | – | – | – | 1751.6 | 1713 | 6.774
[2], x1 = 0.3994 | 1051.69 | – | – | – | – | 1718.4 | 1679.1 | 5.724
[2], x1 = 0.4997 | 1048.9 | – | – | – | – | 1683.7 | 1644.5 | 4.469
[2], x1 = 0.6001 | 1045.08 | – | – | – | – | 1651.6 | 1612.7 | 3.566
[2], x1 = 0.6997 | 1041.48 | – | – | – | – | 1623.8 | 1585.3 | 2.865
[2], x1 = 0.7982 | 1038.44 | – | – | – | – | 1601.2 | 1562.6 | 2.394
[2], x1 = 0.899 | 1035.42 | – | – | – | – | 1581 | 1542.6 | 2.041
[2], x1 = 1 | 1032.87 | – | – | – | – | 1565.3 | 1526.5 | 1.858
